Test results as given in patent publication US20250177383A1, “DI-CYCLOPROPYL BASED IL-17A MODULATORS AND USES THEREOF” (DICE ALPHA, INC., priority 2022, published 2025).

Experiments:
[1] = Microsomal stability, human liver microsomes; assay type: in vitro ADME; settings: human liver microsomes 0.5 mg protein/mL, 1 μM test compound, NADPH, 37° C., 60 min; read-out: HLM Clint
Protocol: (§1) Test compound and control working solution preparation. 5 μL of a compound and control stock solution (10 mM in dimethyl sulfoxide (DMSO)) were diluted with 495 μL of acetonitrile (ACN).
(§2) NADPH cofactor preparation. The appropriate amount of NADPH powder was weighed and diluted into a 10 mM MgCl2 solution (working solution concentration: 10 mM; final concentration in reaction system: 1 mM). Materials: NADPH powder: β-Nicotinamide adenine dinucleotide phosphate reduced form, tetrasodium salt; NADPHA4Na (Vendor: Chem-Impex International, Cat. No. 00616).
(§3) Liver Microsome Preparation. The appropriate concentrations of microsome working solutions were prepared in 100 mM potassium phosphate buffer. Materials: Human Liver Microsomes (HLM) Cat No. 452117 and Lot No. 38295 (Corning); SD Rat Liver Microsomes (RLM) Cat No. R1000 and Lot No. 1910100 (Xenotech).
(§4) Stop solution preparation. Cold (4° C.) acetonitrile (ACN) containing 200 ng/mL tolbutamide and 200 ng/mL labetalol as internal standards (IS) were used as the stop solution.
(§5) Assay Procedure. Empty incubation plates (T60 and NCF60) were warmed for 10 mins prior to use. Liver microsomes were diluted to 0.56 mg/mL in 100 mM phosphate buffer. 445 uL microsome working solutions (0.56 mg/mL) were transferred into pre-warmed ‘Incubation’ plates T60 and NCF60, Then ‘Incubation’ plates T60 and NCF60 were pre-incubated for 10 min at 37° C. with constant shaking. 54 μL liver microsomes were transferred to the blank plate, then 6 μL NAPDH cofactor were added to the blank plate, followed by the addition 180 μL quenching solution to the blank plate. 5 μL compound working solution (100 μM) were added into ‘incubation’ plates (T60 and NCF60) containing microsomes and mixed thoroughly 3 times. To the NCF60 plate 50 μL of buffer were added and mixed 3 times thoroughly. Start timing; plate was incubated at 37° C. for 60 min while shaking. In ‘Quenching’ plate TO, were added 180 μL quenching solution and 6 μL NAPDH cofactor. Plate is chilled to prevent evaporation. The T60 plate, was mixed 3 times thoroughly, and immediately 54 μL of the mixture was removed for the 0-min time point to ‘Quenching’ plate. Then 44 μL NAPDH cofactor was added to the incubation plate (T60). Start timing; plate was incubated at 37° C. for 60 min while shaking. Final concentrations of each component in the incubation media: Microsome (0.5 mg protein/mL); Test compound (1 μM); control compound ([…]); ACN (0.99%); and DMSO (0.01%). At 5, 15, 30, 45, and 60 min, 180 μL quenching solution was added to ‘Quenching’ plates, mixed once, and serially transferred 60 μL of sample from T60 plate per time point to ‘Quenching’ plates. For the NCF60 plate, mix once and 60 μL of sample was transferred from the NCF60 incubation to ‘Quenching’ plate containing quenching solution at the 60-min time point (Start time 1:00:00 and End Time 0:00:00).
(§6) All sampling plates were shaken for 10 min, then centrifuged at 4000 rpm for 20 minutes at 4° C. 80 μL of supernatant were transferred into 240 μL HPLC water, and mixed by plate shaker for 10 min. Each bioanalysis plate was sealed and shaken for 10 minutes prior to LC-MS/MS analysis.

[2] = Microsomal stability, rat liver microsomes; assay type: in vitro ADME; settings: SD rat liver microsomes 0.5 mg protein/mL, 1 μM test compound, NADPH, 37° C., 60 min; read-out: RLM Clint
Protocol: as §1, §2, §3, §4, §5, §6

Rat pharmacokinetics, PO = assay type: in vivo; settings: male rat, PO 5 mg/kg oral gavage, plasma, Linear/log trapezoidal; read-out: Rat PO AUC0-t
Protocol: Formulations for PO. An appropriate amount of the test article is weighed and mixed with the appropriate volume of vehicle to get a clear solution or a uniform suspension, vortexing or sonication in water bath may used. Animals are dosed within four hours after the formulation is prepared.
Formulation samples are removed from each of the formulation solutions or suspensions, transferred into 1.5 mL of polypropylene microcentrifuge tubes and run dose validated by LC/UV or LC-MS/MS.
Dose administration. For PO dosing, the dose formulation is administered via oral gavage.
Blood Collection. Each blood collection (about 0.2 mL per time point) is performed from carotid artery cannula (CAC) of each animal into a pre-chilled commercial EDTA-K2 tubes as anti-coagulant, then placed on wet ice until centrifugation. Blood samples are processed for plasma by centrifugation at approximately 4° C., 3,200 g for 10 min. Plasma is collected respectively and a certain amount of plasma from rat is transferred into pre-labeled 96 well plate or polypropylene tubes, quick frozen over dry ice and kept at −60° C. or lower until LC-MS/MS analysis. After terminal collection, all plasmas are stored at approximately −80° C. freezer until final analysis.
Plasma concentration versus time data are plotted in graph and analyzed by non-compartmental approaches using the Phoenix WinNonlin 6.3 software program. Trapezoids: Before TMax (Linear); After Tmax (Log). Partial Area Interpolations: Before TMax (Linear); After Tmax (Log).

IL-17A/A = biological target: T1, IL-17A/A (Homo sapiens, UniProt Q16552); assay: IL-17A/A HEK-Blue Cell Assay; assay type: cell-based; settings: HEK-Blue IL-17 reporter cells, IL-17A/A stimulation, 20 hours, SEAP readout; read-out: IL17 AA HEK-5 pIC50 (converted)
T1 sequence (Q16552 24-155): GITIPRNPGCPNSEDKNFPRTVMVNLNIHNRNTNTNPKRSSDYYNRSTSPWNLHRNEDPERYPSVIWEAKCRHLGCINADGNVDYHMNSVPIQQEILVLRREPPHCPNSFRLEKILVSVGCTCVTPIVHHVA
Method in brief: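 Cells co-expressing IL-17RA, IL-17RC and Act1 received titrated compound, top final 10 uM in 0.1% DMSO, immediately before IL-17A/A stimulation.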

IL-17A/F = biological target: T2, IL-17A/F (Homo sapiens, UniProt Q16552+Q96PD4); assay: IL-17A/F HEK-Blue Cell Assay; assay type: cell-based; settings: HEK-Blue IL-17 reporter cells, IL-17A/F stimulation, 20 hours, SEAP readout; read-out: IL17AF HEK Blue pIC50 (converted)
T2 sequence (Q16552 24-155): T1 sequence (Q16552 24-155)
T2 sequence (Q96PD4 31-163): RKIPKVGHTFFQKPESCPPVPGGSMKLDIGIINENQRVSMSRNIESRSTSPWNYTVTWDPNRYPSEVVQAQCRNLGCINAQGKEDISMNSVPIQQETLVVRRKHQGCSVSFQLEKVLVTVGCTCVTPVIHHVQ

Structure (SMILES) | microsomal CLint at 1 μM [1] | microsomal CLint at 1 μM [2] | AUC(0-t) (Rat pharmacokinetics, PO) | IC50 (IL-17A/A) | IC50 (IL-17A/F)
CCC(=O)N[C@@H](C(=O)N1C[C@@H](C)N(C)C[C@H]1C)[C@@H](C)c1ccc(NC(=O)[C@@H](NC(=O)c2ccnn2CC)[C@H]2CC[C@H](C)CC2)c(F)c1 [A, reference compound] | 50 to 150 µL/min/mg | > 20 µL/min/mg | 500 to 1000 ng·h/mL | – | –
CCn1nccc1C(=O)N[C@H](C(=O)Nc1ccc([C@H](C)[C@@H](NC(=O)COC)C(=O)N2CCN(C)[C@@H](CF)C2)cc1F)[C@H]1CC[C@H](C)CC1 [B, reference compound] | 50 to 150 µL/min/mg | 9.6 to 20 µL/min/mg | < 500 ng·h/mL | – | –
CCn1nccc1C(=O)N[C@H](C(=O)Nc1ccc([C@H](C)[C@@H](NC(C)=O)C(=O)N2CCN(C)[C@H](C)C2)cc1F)[C@H]1CC[C@H](C)CC1 [C, reference compound] | > 150 µL/min/mg | > 20 µL/min/mg | < 500 ng·h/mL | – | –
CO[C@@H](C)C(=O)N[C@@H](C(=O)N1CCN(C)[C@H](C)C1)[C@@H](C)c1ccc(NC(=O)[C@@H](NC(=O)c2nonc2C)C(C2CC2)C2CC2)c(F)c1 [Compound 308] | – | – | – | < 10 nM | 100 to 10000 nM
CCOCCN(C)C(=O)N[C@@H](C(=O)N1CCN(C)[C@H](C)C1)[C@@H](C)c1ccc(NC(=O)[C@@H](NC(=O)c2ccnn2CC)C(C2CC2)C2CC2)c(F)c1 [Compound 313] | – | – | – | 10 to 100 nM | 100 to 10000 nM
CCOCCN(C)C(=O)N[C@@H](C(=O)N1CCN(C)CC1)[C@@H](C)c1ccc(NC(=O)[C@@H](NC(=O)c2ccnn2CC)C(C2CC2)C2CC2)c(F)c1 [Compound 316] | – | – | – | 10 to 100 nM | 100 to 10000 nM
CCn1nccc1C(=O)N[C@H](C(=O)Nc1ccc([C@H](C)[C@@H](NC(=O)C(C2CC2)C2CC2)C(=O)N2CCN(C)[C@H](C)C2)cc1F)C(C1CC1)C1CC1 [Compound 319] | – | – | – | < 10 nM | 10 to 100 nM
CCn1nccc1C(=O)N[C@H](C(=O)Nc1ccc([C@H](C)[C@@H](NC(=O)C(C2CC2)C2CC2)C(=O)N2CCN(C)CC2)cc1F)C(C1CC1)C1CC1 [Compound 330] | – | – | – | < 10 nM | 10 to 100 nM
CO[C@@H](C)C(=O)N[C@@H](C(=O)N1CCN(C)CC1)[C@@H](C)c1ccc(NC(=O)[C@@H](NC(=O)c2ccnn2C2CC2)C(C2CC2)C2CC2)c(F)c1 [Compound 341] | – | – | – | < 10 nM | 100 to 10000 nM
CO[C@@H](C)C(=O)N[C@@H](C(=O)N1CCN(C)[C@H](C)C1)[C@@H](C)c1ccc(NC(=O)[C@@H](NC(=O)c2ccnn2C2CC2)C(C2CC2)C2CC2)c(F)c1 [Compound 342] | – | – | – | < 10 nM | 10 to 100 nM
COCC(=O)N[C@@H](C(=O)N1CCN(C)CC1)[C@@H](C)c1ccc(NC(=O)[C@@H](NC(=O)c2ccnn2C(C)C)C(C2CC2)C2CC2)c(F)c1 [Compound 345] | – | – | – | < 10 nM | 10 to 100 nM
COCC(=O)N[C@@H](C(=O)N1CCN(C)CC1)[C@@H](C)c1ccc(NC(=O)[C@@H](NC(=O)c2nonc2C)C(C2CC2)C2CC2)c(F)c1 [Compound 346] | – | – | – | 10 to 100 nM | 100 to 10000 nM
CO[C@@H](C)C(=O)N[C@@H](C(=O)N1CCN(C)CC1)[C@@H](C)c1ccc(NC(=O)[C@@H](NC(=O)c2nonc2C)C(C2CC2)C2CC2)c(F)c1 [Compound 347] | – | – | – | < 10 nM | 100 to 10000 nM
COCC(=O)N[C@@H](C(=O)N1CCN(C)[C@H](C)C1)[C@@H](C)c1ccc(NC(=O)[C@@H](NC(=O)c2nonc2C)C(C2CC2)C2CC2)c(F)c1 [Compound 348] | – | – | – | < 10 nM | 100 to 10000 nM
CCn1nccc1C(=O)N[C@H](C(=O)Nc1ccc([C@H](C)[C@@H](NC(=O)[C@@H](C)F)C(=O)N2CCN(C)[C@H](C)C2)cc1F)C(C1CC1)C1CC1 [Compound 349] | – | – | – | < 10 nM | 100 to 10000 nM
CCOC(=O)N[C@@H](CF)C(=O)N[C@@H](C(=O)N1CCN(C)[C@H](C)C1)[C@@H](C)c1ccc(NC(=O)[C@@H](NC(=O)C2(F)CC2)C(C2CC2)C2CC2)c(F)c1 [Compound 358] | – | – | – | < 10 nM | 100 to 10000 nM
CCOC(=O)N[C@@H](CF)C(=O)N[C@@H](C(=O)N1CCN(C)CC1)[C@@H](C)c1ccc(NC(=O)[C@@H](NC(=O)C2(F)CC2)C(C2CC2)C2CC2)c(F)c1 [Compound 359] | – | – | – | < 10 nM | 100 to 10000 nM
CCOC(=O)N[C@@H](CF)C(=O)N[C@@H](C(=O)N1CCN(C)CC1)[C@@H](C)c1ccc(NC(=O)[C@@H](NC(=O)c2nonc2C)C(C2CC2)C2CC2)c(F)c1 [Compound 360] | – | – | – | < 10 nM | 10 to 100 nM
CCOC(=O)N[C@@H](C)C(=O)N[C@@H](C(=O)N1CCN(C)CC1)[C@@H](C)c1ccc(NC(=O)[C@@H](NC(=O)c2nonc2C)C(C2CC2)C2CC2)c(F)c1 [Compound 361] | – | – | – | < 10 nM | 10 to 100 nM
CCOC(=O)N[C@@H](CF)C(=O)N[C@@H](C(=O)N1CCN(C)[C@H](C)C1)[C@@H](C)c1ccc(NC(=O)[C@@H](NC(=O)c2nonc2C)C(C2CC2)C2CC2)c(F)c1 [Compound 363] | – | – | – | < 10 nM | 10 to 100 nM
CCn1nccc1C(=O)N[C@H](C(=O)Nc1ccc([C@H](C)[C@@H](NC(=O)COC)C(=O)N2CCN(C)[C@H](C)C2)cc1F)[C@H]1CC[C@H](C)CC1 [D, reference compound] | 50 to 150 µL/min/mg | 9.6 to 20 µL/min/mg | 500 to 1000 ng·h/mL | – | –
